Results: US20110223666A1, “CYTOPLASM EXPOSURE ADDITIVE AND METHOD FOR EXPOSING PARTICLES DELIVERED INTO CELL TO CYTOPLASM FROM ENDOCYTIC VESICLES IN INTACT CELL” (MEDISCOV INC., priority 2008, published 2011)

Tested on: HeLa cells
Assay: Exposure of dasatinib-modified particles from endocytic vesicles to cytoplasm, seen as co-localization with EGFP-ABL1 fluorescence
Type: cell-based
Details: HeLa cells transfected with EGFP-ABL1 with dasatinib-particles; cells fixed by the additive, not observed in a living state
Description: In addition, ABL1 (GenBank Acc. No. NM—198291) which binds to dasatinib was used for another linker constituting a mediator.
EGFP-ABL1 expression vector was produced by a known method (Sambrook & Russell, 2001, Molecular Cloning, Cold Spring Harbor Laboratory Press). After HeLa cells were subcultured to 6,000 cells/well on a 96-well plate, the expression vector DNA was transfected into a cell as mentioned in Example 1.
The particles modified with dasatinib were introduced into the cell transfected with DNA in the following. The cultured HeLa cells were treated with the modified particles according to the following processes:
1) Streptavidin-magnetic particles were mixed with dasatinib-biotin and the mixture was allowed to be reacted with each other. As a result, the particles modified with dasatinib were prepared;
In this embodiment, Olympus fluorescence microscope, FV1000, equipped with the object lens of Uplan Apo 40×/0.85 was used to obtain transmitted images and fluorescent images in the cells.

Row | Compound | function as a cytoplasm exposure additive (exposure of particles to cytoplasm from endocytic vesicles)
1 | paraformaldehyde | exposed the particles to cytoplasm from endocytic vesicles effectively
2 | CCO [ethanol] | exposed the particles to cytoplasm from endocytic vesicles effectively
3 | CO [methanol] | exposed the particles to cytoplasm from endocytic vesicles effectively
